Results as given in US20260200928A1, “THERAPEUTIC COMPOUNDS” (Sanofi, priority 2022, published 2026).

Molecular target: T1, human IL-17A (Homo sapiens, UniProt Q16552)
T1 construct: purchased R&D Systems 7955-IL/CF
T1 sequence (Q16552 24-155): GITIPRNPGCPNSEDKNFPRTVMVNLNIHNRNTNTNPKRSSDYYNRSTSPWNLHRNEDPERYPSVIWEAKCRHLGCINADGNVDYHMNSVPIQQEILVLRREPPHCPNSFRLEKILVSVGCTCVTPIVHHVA
Test: IL-17A AlphaLISA competition assay (block of IL-17A binding to its receptor IL-17RA)
Conditions: mean IC50 (n≥2), block of IL-17A binding to IL-17RA
Experimental: The ability of the compounds to block binding of IL-17A to its receptor, IL-17RA, was analysed in a competition assay using AlphaLISA technology (Perkin Elmer). The assay is a bead based AlphaLISA where the IL-17RA is captured on the acceptor bead via an Fc tag and IL-17A is captured on the streptavidin donor bead via a biotinylated anti-IL17A antibody.
Assay buffer was prepared by adding 0.05% Tween-20 (v/v) and 0.1% BSA to Phosphate Buffered Saline (PBS). The assay was carried out in 384-well white low volume plates (Perkin Elmer #6008359). 10 μL of a 7.5 nM stock of human recombinant IL-17A (R&D Systems 7955-IL/CF) diluted in assay buffer was dispensed into the assay plate and compounds or DMSO vehicle control were added in a volume of 75 nL using an acoustic dispenser (Beckman). The compounds were pre-incubated with the IL-17A for 30 min at room temperature prior to addition of 5 μL of a 5 nM stock of human recombinant IL-17RA/Fc chimera (R&D Systems 177-IR-100) diluted in assay buffer. The IL-17A was incubated with the receptor for a further 90 minutes at room temperature before addition of 5 μL of a mixture of anti-human Fc IgG acceptor beads (75 μg/mL, Perkin Elmer AL1030) and anti-IL-17A biotin conjugated antibody (5 nM, Abcam, #ab155575) in assay buffer. After a further 30 min incubation at room temperature, 5 μL of streptavidin donor beads (75 μg/mL, Perkin Elmer 6760002S) were added and the plate was incubated for 3 h in the dark.
The AlphaLisa signal was measured using the PheraSTAR plate reader (BMG). Data were analysed using GeneData Screener and fitted to a 4-parameter logistic equation. The IC50 values were calculated using the DMSO vehicle as the negative control and a high concentration (4 μM) of a reference IL-17A inhibitor as the positive control. All compounds were analysed at least in duplicate (n≥2).

Row | Molecule | IC50 [nM]
1 | O=C(N[C@H](C(=O)Nc1cc(C(C2CC2)N2C[C@@H](C(F)(F)F)NC2=O)ccn1)C1CCC(F)(F)CC1)c1nonc1C1CC1 (single isomer, unassigned) [Example 162, 4-Cyclopropyl-N—((S)-2-((4-((R or S)-cyclopropyl((S)-2-oxo-4-(trifluoromethyl)imidazolidin-1-yl)methyl)pyridin-2-yl)amino)-1-(4,4-difluorocyclohexyl)-2-oxoethyl)-1,2,5-oxadiazole-3-carboxamide] | 444
2 | CC(C)n1nccc1C(=O)N[C@H](C(=O)Nc1cc(CN2C[C@@H](C(F)(F)F)NC2=O)ccn1)C(C1CC1)C1CC1 [Example 17, N-((S)-1,1-dicyclopropyl-3-oxo-3-((4-(((S)-2-oxo-4-(trifluoromethyl)imidazolidin-1-yl)methyl)pyridin-2-yl)amino)propan-2-yl)-1-isopropyl-1H-pyrazole-5-carboxamide] | 92
3 | CC(C)(C)OCC(NC(=O)c1nonc1C1CC1)C(=O)Nc1cc(CN2C[C@@H](C(F)(F)F)NC2=O)ccn1 (stereo partly drawn) [Example 82, N-(3-(tert-butoxy)-1-oxo-1-((4-(((S)-2-oxo-4-(trifluoromethyl)imidazolidin-1-yl)methyl)pyridin-2-yl)amino)propan-2-yl)-4-cyclopropyl-1,2,5-oxadiazole-3-carboxamide] | 1170
4 | Cn1nccc1C(=O)N[C@H](C(=O)Nc1cc(CN2C[C@@H](C(F)(F)F)NC2=O)ccn1)[C@H]1CC[C@H](C)CC1 [Example 3, 1-Methyl-N—((S)-1-((1r,4S)-4-methylcyclohexyl)-2-oxo-2-((4-(((S)-2-oxo-4-(trifluoromethyl)imidazolidin-1-yl)methyl)pyridin-2-yl)amino)ethyl)-1H-pyrazole-5-carboxamide] | 85
5 | 4-Cyclopropyl-N—((S)-1-((1r,4S)-4-methylcyclohexyl)-2-oxo-2-((5-(((S)-2-oxo-4-(trifluoromethyl)imidazolidin-1-yl)methyl)pyridin-3-yl)amino)ethyl)-1,2,5-oxadiazole-3-carboxamide and 4-Cyclopropyl-N—((R)-1-((1r,4R)-4-methylcyclo-hexyl)-2-oxo-2-((5-(((S)-2-oxo-4-(trifluoromethyl)imidazolidin-1-yl)methyl)pyridin-3-yl)amino)ethyl)-1,2,5-oxadiazole-3-carboxamide [Example 84] | 373
6 | CCn1nccc1C(=O)N[C@H](C(=O)Nc1cc(C[C@H]2C[C@@H](C(F)(F)F)NC2=O)ccn1)C1CCC(F)(F)CC1 [Example 223, N-((S)-1-(4,4-difluorocyclohexyl)-2-oxo-2-((4-(((3S,5S)-2-oxo-5-(trifluoromethyl)pyrrolidin-3-yl)methyl)pyridin-2-yl)amino)ethyl)-1-ethyl-1H-pyrazole-5-carboxamide] | 84
7 | COCC(NC(=O)CCC(F)(F)F)c1ccnc(NC(=O)[C@@H](NC(=O)c2ccnn2CC2CC2)C2CCC(F)(F)CC2)c1 (single isomer, unassigned) [Example 147] | 828
8 | COCC(c1ccnc(NC(=O)[C@@H](NC(=O)c2ncncc2C)[C@H]2CC[C@H](C)CC2)c1)N1C[C@H](C(F)(F)F)NC1=O (stereo partly drawn) [Example 135, N-((1S)-2-((4-(2-methoxy-1-((S)-2-oxo-4-(trifluoromethyl)imidazolidin-1-yl)ethyl)pyridin-2-yl)amino)-1-((1r,4S)-4-methylcyclohexyl)-2-oxoethyl)-5-methylpyrimidine-4-carboxamide] | 1460
9 | CCn1nccc1C(=O)N[C@H](C(=O)Nc1cc([C@@H](COC)N2CC(F)(F)CNC2=O)ccn1)C1CCC(F)(F)CC1 [Example 179, N-((S)-2-((4-((S)-1-(5,5-difluoro-2-oxotetrahydropyrimidin-1(2H)-yl)-2-methoxyethyl)pyridin-2-yl)amino)-1-(4,4-difluorocyclohexyl)-2-oxoethyl)-1-ethyl-1H-pyrazole-5-carboxamide] | 83
10 | COCC(c1ccnc(NC(=O)C(NC(=O)Cc2c(C)noc2C)C2CCC(C)CC2)c1)N1CC(C(F)(F)F)NC1=O [Example 113, (2S)-2-(2-(3,5-dimethyl-isoxazol-4-yl)acetamido)-N-(4-(2-methoxy-1-((S)-2-oxo-4-(trifluoromethyl)-imidazolidin-1-yl)ethyl)-pyridin-2-yl)-2-((1r,4S)-4-methylcyclohexyl)-acetamide] | 1000
11 | COC[C@H](c1ccnc(NC(=O)C(NC(=O)c2nonc2C2CC2)C2CCC(F)CC2)c1)N1C[C@@H](C(F)(F)F)NC1=O (single isomer, unassigned) [Example 279] | 12000
12 | Cn1nccc1C(=O)N[C@@H](COC(C)(C)C(F)(F)F)C(=O)Nc1cc(CN2C[C@@H](C(F)(F)F)NC2=O)ccn1 [Example 275, 1-methyl-N-((S)-1-oxo-1-((4-(((S)-2-oxo-4-(trifluoromethyl)imidazolidin-1-yl)methyl)pyridin-2-yl)amino)-3-((1,1,1-trifluoro-2-methylpropan-2-yl)oxy)propan-2-yl)-1H-pyrazole-5-carboxamide] | 946

Next, values leading:

Row | IC50 [nM] | Molecule
13 | 33 | CCn1nccc1C(=O)N[C@H](C(=O)Nc1cc(C(NC(=O)CCC(F)(F)F)C2CC2)ccn1)C1CCC(F)(F)CC1 (stereo partly drawn) [Example 108, N-((1S)-2-((4-(cyclopropyl(4,4,4-trifluorobutanamido)methyl)pyridin-2-yl)amino)-1-(4,4-difluorocyclohexyl)-2-oxoethyl)-1-ethyl-1H-pyrazole-5-carboxamide]
14 | 62 | COC[C@H](c1ccnc(NC(=O)[C@@H](NC(=O)c2ccnn2C)C(C2CC2)C2CC2)c1)N1C[C@@H](C(F)(F)F)NC1=O [Example 228, N-((S)-1,1-dicyclopropyl-3-((4-((S)-2-methoxy-1-((S)-2-oxo-4-(trifluoromethyl)imidazolidin-1-yl)ethyl)pyridin-2-yl)amino)-3-oxopropan-2-yl)-1-methyl-1H-pyrazole-5-carboxamide]
15 | 29 | CCc1conc1C(=O)N[C@H](C(=O)Nc1cc([C@@H](COC)N2C[C@@H](C(F)(F)F)NC2=O)ccn1)[C@H]1CCCC(F)(F)C1 (single isomer, unassigned) [Example 305]
16 | 69 | COCC(c1ccnc(NC(=O)[C@@H](NC(=O)c2ccnn2C(C)C)[C@H]2CC[C@H](C)CC2)c1)N1C[C@@H](C(F)(F)F)NC1=O (single isomer, unassigned) [Example 78]
17 | 67 | CC(c1ccnc(NC(=O)[C@@H](NC(=O)c2ccnn2C)C2CCC(F)(F)CC2)c1)N1C[C@@H](C(F)(F)F)NC1=O (single isomer, unassigned) [Example 171, N-((1S)-1-(4,4-difluorocyclohexyl)-2-oxo-2-((4-((R or S)-1-((S)-2-oxo-4-(trifluoromethyl)imidazolidin-1-yl)ethyl)pyridin-2-yl)amino)ethyl)-1-methyl-1H-pyrazole-5-carboxamide]
18 | 82 | COCC(c1ccnc(NC(=O)[C@@H](NC(=O)Cc2cc(C)[nH]n2)[C@H]2CC[C@H](C)CC2)c1)N1C[C@@H](C(F)(F)F)NC1=O (single isomer, unassigned) [Example 114]
19 | 38 | COCC(c1ccnc(NC(=O)C(NC(=O)C(F)(F)c2cc(F)cc(F)c2)C2CCC(C)CC2)c1)N1CC(C(F)(F)F)NC1=O (single isomer, unassigned) [Example 250]
20 | 35 | CC(C)n1nccc1C(=O)N[C@@H](C(=O)Nc1cc(CN2C[C@H](C(F)(F)F)NC2=O)ccn1)[C@H]1CC[C@H](C)CC1 [Example 4, 1-isopropyl-N—((S)-1-((1r,4S)-4-methylcyclohexyl)-2-oxo-2-((4-(((S)-2-oxo-4-(trifluoromethyl)imidazolidin-1-yl)methyl)pyridin-2-yl)amino)ethyl)-1H-pyrazole-5-carboxamide]
21 | 61 | COCC(c1ccnc(NC(=O)[C@@H](NC(=O)c2nonc2C2CC2)[C@H]2CC[C@H](C)CC2)c1)N1C[C@@H](C(F)(F)F)NC1=O (single isomer, unassigned) [Example 59]
22 | 77 | COCC(c1ccnc(NC(=O)C(NC(=O)C(F)c2ccccc2)C2CCC(C)CC2)c1)N1CC(C(F)(F)F)NC1=O [Example 254, 2-fluoro-N-((S)-2-((4-((S)-2-methoxy-1-((S)-2-oxo-4-(trifluoromethyl)-imidazolidin-1-yl)ethyl)pyridin-2-yl)amino)-1-((1r,4S)-4-methylcyclohexyl)-2-oxoethyl)-2-phenylacetamide]
23 | 10 | COC[C@H](c1ccnc(NC(=O)[C@H](COC(C)(C)C(F)(F)F)NC(=O)c2nonc2C2CC2)c1)N1C[C@@H](C(F)(F)F)NC1=O [Example 269, 4-cyclopropyl-N-((S)-1-((4-((S)-2-methoxy-1-((S)-2-oxo-4-(trifluoromethyl)imidazolidin-1-yl)ethyl)pyridin-2-yl)amino)-1-oxo-3-((1,1,1-trifluoro-2-methylpropan-2-yl)oxy)propan-2-yl)-1,2,5-oxadiazole-3-carboxamide]
